Source: US20190292155A1, “THERAPEUTIC INHIBITORY COMPOUNDS” (LifeSci Pharmaceuticals, Inc., priority 2016, published 2019)
Like-named read-outs stand apart in the source and are kept apart here.

Molecular target: T1, human complement factor D (Homo sapiens, UniProt P00746)
T1 construct: purchased R&D Systems 1824-SE
Assay: In vitro enzyme inhibition of human complement factor D (Z-Lys-SBzl/DTNB, A405)
Assay type: biochemical
Outline: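 Buffer 50 mM Tris/HCl pH 7.5, 1 M NaCl, 0.5% final DMSO; compounds pre-incubated with enzyme 5 min at room temperature, then Z-Lys-SBzl with DTNB added (each diluted to 200 μM before addition).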

[1] = biochemical assay, substrate Z-Lys-SBzl, read-out: CFD IC50

T1 sequence (P00746 26-253): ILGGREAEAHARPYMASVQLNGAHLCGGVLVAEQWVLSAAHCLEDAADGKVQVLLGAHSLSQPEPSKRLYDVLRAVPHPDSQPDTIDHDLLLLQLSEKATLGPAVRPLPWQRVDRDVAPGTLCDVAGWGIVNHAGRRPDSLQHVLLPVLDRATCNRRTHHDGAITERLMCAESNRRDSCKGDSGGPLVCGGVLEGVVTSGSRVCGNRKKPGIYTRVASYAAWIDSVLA

IC50 [1] [nM]	SMILES	IC50 [nM]
–	CC(CO)N(CC(=O)NCc1cccc(Cl)c1F)C(=O)Cn1nc(C(N)=O)c2ccccc21 (centres unmarked) [Example 58, 1-(2-((2-((3-chloro-2-fluorobenzyl)amino)-2-oxoethyl)(1-hydroxypropan-2-yl)amino)-2-oxoethyl)-1H-indazole-3-carboxamide]	100 to 1000
100 to 1000	NC(=O)c1nn(CC(=O)N(CC(=O)NCc2cc(Cl)cc(Cl)c2)C2CC2)c2ccccc12 [Example 119, 1-(2-(cyclopropyl(2-((3,5-dichlorobenzyl)amino)-2-oxoethyl)amino)-2-oxoethyl)-1H-indazole-3-carboxamide]	–
100 to 1000	NCCN(CC(=O)NCc1cccc(Cl)c1F)C(=O)Cn1nc(C(N)=O)c2ccccc21 [Example 31, 1-(2-((2-aminoethyl)(2-((3-chloro-2-fluorobenzyl)amino)-2-oxoethyl)amino)-2-oxoethyl)-1H-indazole-3-carboxamide]	–
1000 to 10000	N#Cc1cc(Cl)cc(CNC(=O)CN(C(=O)Cn2nc(C(N)=O)c3ccccc32)C2CC2)c1 [Example 133, 1-(2-((2-((3-chloro-5-cyanobenzyl)amino)-2-oxoethyl)(cyclopropyl)amino)-2-oxoethyl)-1H-indazole-3-carboxamide]	–
1000 to 10000	NC(=O)c1nn(CC(=O)N(CC(=O)NCc2cccc(Cl)c2C(F)(F)F)C2CC2)c2ccccc12 [Example 135, 1-(2-((2-((3-chloro-2-(trifluoromethyl)benzyl)amino)-2-oxoethyl)(cyclopropyl)amino)-2-oxoethyl)-1H-indazole-3-carboxamide]	–
100 to 1000	COCC(C)N(CC(=O)NCc1cccc(Cl)c1F)C(=O)Cn1nc(C(N)=O)c2ccccc21 (centres unmarked) [Example 68, 1-(2-((2-((3-chloro-2-fluorobenzyl)amino)-2-oxoethyl)(1-methoxypropan-2-yl)amino)-2-oxoethyl)-1H-indazole-3-carboxamide]	–
> 10000	NC(=O)c1nn(CC(=O)N(CC(=O)NCc2cccc(CO)c2F)C2CC2)c2ccccc12 [Example 126, 1-(2-(cyclopropyl(2-((2-fluoro-3-(hydroxymethyl)benzyl)amino)-2-oxoethyl)amino)-2-oxoethyl)-1H-indazole-3-carboxamide]	–
–	NC(=O)c1ccc2c(C(N)=O)nn(CC(=O)N(CC(=O)NCc3cccc(Cl)c3F)C3CC3)c2c1 [Example 100, 1-(2-((2-((3-chloro-2-fluorobenzyl)amino)-2-oxoethyl)(cyclopropyl)amino)-2-oxoethyl)-1H-indazole-3,6-dicarboxamide]	< 100
1000 to 10000	CC1(C)CC(O)CC(NC(=O)CN(C(=O)Cn2nc(C(N)=O)c3ccccc32)C2CC2)C1 (centres unmarked) [Example 9, 1-(2-(cyclopropyl(2-((5-hydroxy-3,3-dimethylcyclohexyl)amino)-2-oxoethyl)amino)-2-oxoethyl)-1H-indazole-3-carboxamide]	–
1000 to 10000	N#Cc1cc(Cl)c(F)c(CNC(=O)CN(C(=O)Cn2nc(C(N)=O)c3ccccc32)C2CC2)c1 [Example 90, 1-(2-((2-((3-chloro-5-cyano-2-fluorobenzyl)amino)-2-oxoethyl)(cyclopropyl)amino)-2-oxoethyl)-1H-indazole-3-carboxamide]	–
100 to 1000	CC(N(CC(=O)NCc1cccc(Cl)c1F)C(=O)Cn1nc(C(N)=O)c2ccccc21)C(F)(F)F (centres unmarked) [Example 67, 1-(2-((2-((3-chloro-2-fluorobenzyl)amino)-2-oxoethyl)(1,1,1-trifluoropropan-2-yl)amino)-2-oxoethyl)-1H-indazole-3-carboxamide]	–
1000 to 10000	CN(CC(=O)Nc1cccc(Cl)n1)C(=O)Cn1nc(C(N)=O)c2ccccc21 [Example 14, 1-(2-((2-((6-chloropyridin-2-yl)amino)-2-oxoethyl)(methyl)amino)-2-oxoethyl)-1H-indazole-3-carboxamide]	–
–	N#Cc1ccc2c(C(N)=O)nn(CC(=O)N(CC(=O)NCc3cccc(Cl)c3F)C3CC3)c2c1 [Example 86, 1-(2-((2-((3-chloro-2-fluorobenzyl)amino)-2-oxoethyl)(cyclopropyl)amino)-2-oxoethyl)-6-cyano-1H-indazole-3-carboxamide]	100 to 1000
1000 to 10000	NC(=O)c1nn(CC(=O)N(CC(=O)NCc2cccc(Cl)n2)C2CC2)c2ccccc12 [Example 107, 1-(2-((2-(((6-chloropyridin-2-yl)methyl)amino)-2-oxoethyl)(cyclopropyl)amino)-2-oxoethyl)-1H-indazole-3-carboxamide]	–
1000 to 10000	CC1(C)C[C@H](O)C[C@@H](NC(=O)CN(C(=O)Cn2nc(C(N)=O)c3ccccc32)C2CC2)C1 [Example 10, 1-(2-(cyclopropyl(2-(((1S,5S)-5-hydroxy-3,3-dimethylcyclohexyl)amino)-2-oxoethyl)amino)-2-oxoethyl)-1H-indazole-3-carboxamide]	–
1000 to 10000	NC(=O)c1nn(CC(=O)N(CC(=O)NCc2cccc(Cl)c2F)Cc2ccsc2)c2ccccc12 [Example 27, 1-(2-((2-((3-chloro-2-fluorobenzyl)amino)-2-oxoethyl)(thiophen-3-ylmethyl)amino)-2-oxoethyl)-1H-indazole-3-carboxamide]	–

IC50 [1] [nM]	SMILES	IC50 [nM]
100 to 1000	NC(=O)c1nc(NC(=O)N(CC(=O)NCc2cccc(Cl)c2F)C2CC2)n2ccccc12 [Example 140, 3-(3-(2-((3-chloro-2-fluorobenzyl)amino)-2-oxoethyl)-3-cyclopropylureido)imidazo[1,5-a]pyridine-1-carboxamide]	–
1000 to 10000	NCCN(CC(=O)Nc1cccc(Cl)n1)C(=O)Cc1nn(C(N)=O)c2ccccc12 [Example 18, 3-(2-((2-aminoethyl)(2-((6-chloropyridin-2-yl)amino)-2-oxoethyl)amino)-2-oxoethyl)-1H-indazole-1-carboxamide]	–
1000 to 10000	COc1ccc(CNC(=O)CN(C(=O)Cn2nc(C(N)=O)c3ccccc32)C2CC2)cc1Cl [Example 125, 1-(2-((2-((3-chloro-4-methoxybenzyl)amino)-2-oxoethyl)(cyclopropyl)amino)-2-oxoethyl)-1H-indazole-3-carboxamide]	–
1000 to 10000	NC(=O)c1nn(CC(=O)N(CC(=O)Nc2cccc(Cl)n2)C2CCNC2)c2ccccc12 (centres unmarked) [Example 26, 1-(2-((2-((6-chloropyridin-2-yl)amino)-2-oxoethyl)(pyrrolidin-3-yl)amino)-2-oxoethyl)-1H-indazole-3-carboxamide]	–
100 to 1000	NC(=O)c1nn(CC(=O)N(CC(=O)NCc2cccc(Cl)c2F)C2CC2)c2c(F)cccc12 [Example 88, 1-(2-((2-((3-chloro-2-fluorobenzyl)amino)-2-oxoethyl)(cyclopropyl)amino)-2-oxoethyl)-7-fluoro-1H-indazole-3-carboxamide]	–
1000 to 10000	NC(=O)c1nn(CC(=O)N(CC(=O)NCc2cccc(Cl)c2F)C2CC2)cc1Br [Example 46, 4-bromo-1-(2-((2-((3-chloro-2-fluorobenzyl)amino)-2-oxoethyl)(cyclopropyl)amino)-2-oxoethyl)-1H-pyrazole-3-carboxamide]	–
100 to 1000	NC(=O)n1nc(CC(=O)N(CC(=O)Nc2cccc(Cl)n2)C2CCCC2)c2ccccc21 [Example 19, 3-(2-((2-((6-chloropyridin-2-yl)amino)-2-oxoethyl)(cyclopentyl)amino)-2-oxoethyl)-1H-indazole-1-carboxamide]	–
100 to 1000	NC(=O)c1nn(CC(=O)N(CC(=O)NCc2cccc(F)c2F)C2CC2)c2ccccc12 [Example 132, 1-(2-(cyclopropyl(2-((2,3-difluorobenzyl)amino)-2-oxoethyl)amino)-2-oxoethyl)-1H-indazole-3-carboxamide]	–
1000 to 10000	CCC(COC)N(CC(=O)NCc1cccc(Cl)c1F)C(=O)Cn1nc(C(N)=O)c2ccccc21 (centres unmarked) [Example 61, 1-(2-((2-((3-chloro-2-fluorobenzyl)amino)-2-oxoethyl)(1-methoxybutan-2-yl)amino)-2-oxoethyl)-1H-indazole-3-carboxamide]	–
1000 to 10000	NC(=O)n1nc(CC(=O)N(CC(=O)Nc2cccc(Cl)n2)C2CCOCC2)c2ccccc21 [Example 21, 3-(2-((2-((6-chloropyridin-2-yl)amino)-2-oxoethyl)(tetrahydro-2H-pyran-4-yl)amino)-2-oxoethyl)-1H-indazole-1-carboxamide]	–
100 to 1000	CC(c1ccccc1)N(CC(=O)NCc1cccc(Cl)c1F)C(=O)Cn1nc(C(N)=O)c2ccccc21 (centres unmarked) [Example 65, 1-(2-((2-((3-chloro-2-fluorobenzyl)amino)-2-oxoethyl)(1-phenylethyl)amino)-2-oxoethyl)-1H-indazole-3-carboxamide]	–
1000 to 10000	CC(C(N)=O)N(CC(=O)NCc1cccc(Cl)c1F)C(=O)Cn1nc(C(N)=O)c2ccccc21 (centres unmarked) [Example 62, 1-(2-((1-amino-1-oxopropan-2-yl)(2-((3-chloro-2-fluorobenzyl)amino)-2-oxoethyl)amino)-2-oxoethyl)-1H-indazole-3-carboxamide]	–
1000 to 10000	NC(=O)c1nn(CC(=O)N(CC(=O)NCc2ccc(Cl)c(Cl)c2)C2CC2)c2ccccc12 [Example 104, 1-(2-(cyclopropyl(2-((3,4-dichlorobenzyl)amino)-2-oxoethyl)amino)-2-oxoethyl)-1H-indazole-3-carboxamide]	–
100 to 1000	NC(=O)n1cc(NC(=O)N(CC(=O)NCc2cccc(Cl)c2F)C2CC2)c2ccccc21 [Example 51, 3-(3-(2-((3-chloro-2-fluorobenzyl)amino)-2-oxoethyl)-3-cyclopropylureido)-1H-indole-1-carboxamide]	–
1000 to 10000	N#Cc1cccc2c(C(N)=O)nn(CC(=O)N(CC(=O)NCc3cccc(Cl)c3F)C3CC3)c12 [Example 105, 1-(2-((2-((3-chloro-2-fluorobenzyl)amino)-2-oxoethyl)(cyclopropyl)amino)-2-oxoethyl)-7-cyano-1H-indazole-3-carboxamide]	–
–	NC(=O)c1nn(CC(=O)N(CC(=O)NCc2cccc(Cl)c2F)C2CC2)c2ccc(Cl)cc12 [Example 80, 5-chloro-1-(2-((2-((3-chloro-2-fluorobenzyl)amino)-2-oxoethyl)(cyclopropyl)amino)-2-oxoethyl)-1H-indazole-3-carboxamide]	100 to 1000
